# Experimental data from PMC3961306, “Comparison of the Cancer Gene Targeting and Biochemical Selectivities of All Targeted Kinase Inhibitors Approved for Clinical Use” (PLoS ONE, 2014).
# Read-outs that look alike come from different tables or passages of the source.
# Tests used:
# Test in all cases: Kinase profiling in a biochemical assay panel (mobility shift assays and ELISA), %-inhibition at 1 μM; selectivity entropy
# [1] = biological target: T1, panel of more than 300 wild-type and mutant kinases (313 kinase panel) (Homo sapiens, UniProt Q16832); settings: kinase DDR2; compound at 1 μM
# T1 sequence (Q16832 22-855): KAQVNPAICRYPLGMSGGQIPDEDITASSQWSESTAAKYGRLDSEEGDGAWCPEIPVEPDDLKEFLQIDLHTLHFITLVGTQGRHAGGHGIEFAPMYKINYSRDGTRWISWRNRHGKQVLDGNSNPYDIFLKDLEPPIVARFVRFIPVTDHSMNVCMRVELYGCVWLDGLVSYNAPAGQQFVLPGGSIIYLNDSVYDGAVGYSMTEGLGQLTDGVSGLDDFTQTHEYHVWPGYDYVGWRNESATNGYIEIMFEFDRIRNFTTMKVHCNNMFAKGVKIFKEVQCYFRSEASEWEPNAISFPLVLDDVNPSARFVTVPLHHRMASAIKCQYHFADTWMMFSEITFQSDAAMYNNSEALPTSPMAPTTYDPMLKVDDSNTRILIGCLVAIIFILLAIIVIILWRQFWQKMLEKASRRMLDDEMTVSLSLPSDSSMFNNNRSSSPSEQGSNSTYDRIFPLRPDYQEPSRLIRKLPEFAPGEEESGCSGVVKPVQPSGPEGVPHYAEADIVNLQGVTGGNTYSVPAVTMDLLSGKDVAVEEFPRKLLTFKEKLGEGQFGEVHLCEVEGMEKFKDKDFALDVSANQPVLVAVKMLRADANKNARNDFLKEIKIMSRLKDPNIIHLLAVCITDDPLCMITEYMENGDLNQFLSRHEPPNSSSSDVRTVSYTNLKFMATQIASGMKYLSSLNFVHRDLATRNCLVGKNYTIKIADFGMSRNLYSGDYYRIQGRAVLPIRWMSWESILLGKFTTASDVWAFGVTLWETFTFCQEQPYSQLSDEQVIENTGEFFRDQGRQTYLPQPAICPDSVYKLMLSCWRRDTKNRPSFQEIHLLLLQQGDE
# [2] = biological target: T2, panel of more than 300 wild-type and mutant kinases (313 kinase panel) (Homo sapiens, UniProt Q9HBY8); settings: kinase SGK2; 1 μM
# T2 sequence (Q9HBY8 1-367): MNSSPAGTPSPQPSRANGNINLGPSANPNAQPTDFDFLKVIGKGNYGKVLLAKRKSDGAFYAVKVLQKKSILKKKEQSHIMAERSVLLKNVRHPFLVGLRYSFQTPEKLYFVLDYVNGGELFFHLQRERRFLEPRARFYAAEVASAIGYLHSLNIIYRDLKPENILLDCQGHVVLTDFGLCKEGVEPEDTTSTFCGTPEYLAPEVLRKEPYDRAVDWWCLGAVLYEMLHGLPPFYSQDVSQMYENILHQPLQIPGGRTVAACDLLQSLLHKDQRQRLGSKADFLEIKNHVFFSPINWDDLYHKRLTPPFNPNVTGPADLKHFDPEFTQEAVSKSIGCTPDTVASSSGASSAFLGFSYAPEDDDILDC
# [3] = biological target: T3, panel of more than 300 wild-type and mutant kinases (313 kinase panel) (Homo sapiens, UniProt Q9NZJ5); settings: kinase PEK; 1 μM
# T3 sequence (Q9NZJ5 30-1116): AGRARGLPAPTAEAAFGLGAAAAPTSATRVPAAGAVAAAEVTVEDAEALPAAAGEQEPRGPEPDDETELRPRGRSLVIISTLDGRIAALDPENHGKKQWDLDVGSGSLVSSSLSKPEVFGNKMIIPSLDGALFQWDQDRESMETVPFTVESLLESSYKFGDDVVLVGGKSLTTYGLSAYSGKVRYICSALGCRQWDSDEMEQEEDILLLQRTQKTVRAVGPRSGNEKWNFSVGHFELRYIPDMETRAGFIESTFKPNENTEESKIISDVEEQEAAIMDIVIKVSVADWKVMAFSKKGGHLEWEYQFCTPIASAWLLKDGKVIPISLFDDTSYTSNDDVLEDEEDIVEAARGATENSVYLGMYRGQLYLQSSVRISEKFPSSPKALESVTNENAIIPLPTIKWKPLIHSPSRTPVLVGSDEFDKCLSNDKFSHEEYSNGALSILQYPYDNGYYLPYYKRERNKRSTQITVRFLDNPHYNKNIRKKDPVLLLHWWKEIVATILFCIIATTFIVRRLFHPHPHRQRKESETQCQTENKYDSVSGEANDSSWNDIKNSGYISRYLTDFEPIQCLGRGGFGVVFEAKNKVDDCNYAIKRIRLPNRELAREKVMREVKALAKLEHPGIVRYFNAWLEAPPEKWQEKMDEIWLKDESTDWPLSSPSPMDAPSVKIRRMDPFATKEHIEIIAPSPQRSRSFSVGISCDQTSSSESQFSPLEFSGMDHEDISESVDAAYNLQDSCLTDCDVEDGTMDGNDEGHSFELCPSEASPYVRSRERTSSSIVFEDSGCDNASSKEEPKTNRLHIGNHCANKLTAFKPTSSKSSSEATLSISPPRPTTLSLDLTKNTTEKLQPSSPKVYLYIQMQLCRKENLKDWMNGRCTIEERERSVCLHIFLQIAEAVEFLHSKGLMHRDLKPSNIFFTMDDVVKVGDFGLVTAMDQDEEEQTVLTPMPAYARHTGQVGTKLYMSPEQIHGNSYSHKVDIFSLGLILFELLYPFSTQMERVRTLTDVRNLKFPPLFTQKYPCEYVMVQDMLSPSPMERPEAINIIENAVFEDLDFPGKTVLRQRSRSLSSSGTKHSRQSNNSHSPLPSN
# [4] = test system: panel of more than 300 wild-type and mutant kinases (313 kinase panel)
# [5] = kinase EGFR(d746-750), compound at 1 μM
# [6] = kinase EGFR(d746-750/T790M), compound at 1 μM
# [7] = kinase EML4-ALK, compound at 1 μM
SMILES,%-inhibition of DDR2 [1] [%],%-inhibition of SGK2 [2] [%],%-inhibition of PEK [3] [%],"%-inhibition of EGFR(d746-750) [4, 5] [%]","%-inhibition of EGFR(d746-750/T790M) [4, 6] [%]","%-inhibition of EML4-ALK [4, 7] [%]","%-inhibition of LYNb ([4]; kinase LYNb, compound at 1 μM) [%]","%-inhibition of NPM1-ALK ([4]; kinase NPM1-ALK, 1 μM) [%]","%-inhibition of PKCβ2 ([4]; kinase PKCβ2, 1 μM) [%]","%-inhibition of SRM ([4]; kinase SRM, 1 μM) [%]","%-inhibition of TAK1-TAB1 ([4]; kinase TAK1-TAB1, 1 μM) [%]",%-inhibition of NPM1-ALK [4] [%],%-inhibition of TAK1-TAB1 [4] [%],%-inhibition of EGFR(d746-750) ([4]; 1 µM) [%],%-inhibition of EGFR(d746-750/T790M) ([4]; 1 µM) [%],%-inhibition of EML4-ALK ([4]; 1 µM) [%],%-inhibition of LYNb ([4]; 1 µM) [%],%-inhibition of PKCβ2 ([4]; 1 µM) [%],%-inhibition of SRM ([4]; 1 µM) [%]
CO[C@H]1C[C@@H]2CC[C@@H](C)[C@@](O)(O2)C(=O)C(=O)N2CCCC[C@H]2C(=O)O[C@H]([C@H](C)C[C@@H]2CC[C@@H](OCCO)[C@H](OC)C2)CC(=O)[C@H](C)/C=C(\C)[C@@H](O)[C@@H](OC)C(=O)[C@H](C)C[C@H](C)/C=C/C=C/C=C/1C [everolimus],0,-2,5.28,-4,-5,-3.62,-1.66,-5.62,-9,0.151,1.54,–,–,–,–,–,–,–,–
CC(=O)Nc1cccc(-n2c(=O)n(C3CC3)c(=O)c3c(Nc4ccc(I)cc4F)n(C)c(=O)c(C)c32)c1 [trametinib],0.612,-7,1.13,-2.58,1.72,-2.51,-2.58,-1.79,-1.58,-4,5.47,–,–,–,–,–,–,–,–
CN(C)C/C=C/C(=O)Nc1cc2c(Nc3ccc(F)c(Cl)c3)ncnc2cc1O[C@H]1CCOC1 [afatinib],–,–,12,–,–,–,–,–,–,–,–,–,–,–,–,–,–,–,–
O=S(=O)(c1cccc2cnccc12)N1CCCNCC1 [fasudil],0.102,-0.764,-7.4,–,–,–,–,–,–,–,–,–,–,–,–,–,–,–,–
N#CC[C@H](C1CCCC1)n1cc(-c2ncnc3[nH]ccc23)cn1 [ruxolitinib],49,-1.48,-0.459,–,–,–,–,–,–,–,–,65,6,-1.14,1.32,64,8,5,4.69
COc1cc2nccc(Oc3ccc(NC(=O)C4(C(=O)Nc5ccc(F)cc5)CC4)cc3)c2cc1OC [cabozantinib],99,-1.48,79,51,43,17,97,10,-0.178,99,4.37,–,–,–,–,–,–,–,–
CC(C)(C)c1nc(-c2cccc(NS(=O)(=O)c3c(F)cccc3F)c2F)c(-c2ccnc(N)n2)s1 [dabrafenib],100,-7.58,–,-1.84,6.41,-1.11,86,-3,-3,100,14,–,–,–,–,–,–,–,–
C[C@@H](Oc1cc(-c2cnn(C3CCNCC3)c2)cnc1N)c1c(Cl)ccc(F)c1Cl [crizotinib],88,-2.31,1.1,–,–,–,–,–,–,–,–,–,5,2,8,–,34,-1.6,1.51
CCCS(=O)(=O)Nc1ccc(F)c(C(=O)c2c[nH]c3ncc(-c4ccc(Cl)cc4)cc23)c1F [vemurafenib],69,2.66,11,2.81,4.62,-1.53,62,-1.72,-3,102,9,–,–,–,–,–,–,–,–
Cc1ccc(C(=O)Nc2ccc(CN3CCN(C)CC3)c(C(F)(F)F)c2)cc1C#Cc1cnc2cccnn12 [ponatinib],101,12,65,–,–,–,–,–,–,–,–,–,–,–,–,–,–,–,–
Cc1nc(Nc2ncc(C(=O)Nc3c(C)cccc3Cl)s2)cc(N2CCN(CCO)CC2)n1 [dasatinib],–,6,–,–,–,–,–,–,–,–,–,–,–,–,–,–,–,–,–
